Assay results: US20070259784A1, “Fungicidal Mixtures” (BASF Aktiengesellschaft, priority 2004, published 2007)

Test system: Puccinia recondita
Experiment: Protective activity against Puccinia recondita on wheat (brown rust of wheat)
Assay type: in vivo
Settings: individual active compound, wheat leaves, visual rating
Procedure: The active compounds, separately or jointly, were prepared as a stock solution comprising 0.25% by weight of active compound in acetone or DMSO. 1% by weight of the emulsifier Uniperol® EL (welting agent having emulsifying and dispersant action based on ethoxylated alkylphenols) was added to this solution, and the mixture was diluted with water to the desired concentration.
Leaves of potted wheat seedlings of the cultivar “Kanzler” were sprayed to runoff point with an aqueous suspension having the concentration of active compound stated below. The next day, the treated plants were inoculated with a spore suspension of brown rust of wheat (Puccinia recondita). The plants were then placed in a chamber with high atmospheric humidity (90 to 95%) at 20 to 22° C. for 24 hours. During this time, the spores germinated and the germinal tubes penetrated into the leaf tissue. The next day, the test plants were returned to the greenhouse and cultivated at temperatures between 20 and 22° C. and at 65 to 70% relative atmospheric humidity for a further 7 days. The extent of the development of the rust fungus on the leaves was then determined visually.
The visually determined percentages of infected leaf areas were converted into efficacies in % of the untreated control:
The efficacy (E) is calculated as follows using Abbot's formula: E=(1−α/β)·100 α corresponds to the fungicidal infection of the treated plants in % and β corresponds to the fungicidal infection of the untreated (control) plants in %
An efficacy of 0 means that the infection level of the treated plants corresponds to that of the untreated control plants; an efficacy of 100 means that the treated plants were not infected.
The expected efficacies of mixtures of active compounds were determined using Colby's formula (Colby, S. R. “Calculating synergistic and antagonistic responses of herbicide combinations”, Weeds, 15, 20-22, 1967) and compared with the observed efficacies.
Colby's Formula: E=x+y−x·y/100 • E expected efficacy, expressed in % of the untreated control, when using the mixture of the active compounds A and B at the concentrations a and b • x efficacy, expressed in % of the untreated control, when using the active compound A at the concentration a
y efficacy, expressed in % of the untreated control, when using the active compound B at the concentration b

| Structure (SMILES) | Efficacy in % of the untreated control (1 ppm in the spray liquor) | Efficacy in % of the untreated control (2.5 ppm in the spray liquor) | Efficacy in % of the untreated control (12.5 ppm in the spray liquor) | Efficacy in % of the untreated control (5 ppm in the spray liquor) |
| --- | --- | --- | --- | --- |
| CCN(CC)C1COC2(CCC(C(C)(C)C)CC2)O1 (centres unmarked) [compound II, (8-tert-butyl-1,4-dioxaspiro[4.5]dec-2-yl)diethylamine] | 0% | 0% | 0% |  |
| CC1CCN(c2c(-c3c(F)cc(F)cc3F)c(Cl)nc3ncnn23)CC1 [compound I, 5-chloro-7-(4-methylpiperidin-1-yl)-6-(2,4,6-trifluorophenyl)-[1,2,4]triazolo[1,5-a]pyrimidine] |  | 42% |  | 53% |
